# Test results: US11846631B2, “Methods for determining drug effects on a mature cardiomyocyte” (ORGANOS, INC., priority 2018, dated 2023)
# Key:
# IKr = IKr (Homo sapiens, UniProt Q12809); details: from the literature; cited from earlier work
# the other currents = test: Inversion of voltage and calcium traces measured in hiPSC-CMs in a cardiac MPS (channel block identification); assay type: cell-based, human; details: cisapride 10 nM; measured MPS data of hiPSC-CMs (FIG. 5)
# From the text: [formula] […] The Minimization Procedure
# ICaL = ICaL (Homo sapiens, UniProt Q13936); details: from the literature; cited from earlier work
# Chain of ICaL (Q13936 whole entry): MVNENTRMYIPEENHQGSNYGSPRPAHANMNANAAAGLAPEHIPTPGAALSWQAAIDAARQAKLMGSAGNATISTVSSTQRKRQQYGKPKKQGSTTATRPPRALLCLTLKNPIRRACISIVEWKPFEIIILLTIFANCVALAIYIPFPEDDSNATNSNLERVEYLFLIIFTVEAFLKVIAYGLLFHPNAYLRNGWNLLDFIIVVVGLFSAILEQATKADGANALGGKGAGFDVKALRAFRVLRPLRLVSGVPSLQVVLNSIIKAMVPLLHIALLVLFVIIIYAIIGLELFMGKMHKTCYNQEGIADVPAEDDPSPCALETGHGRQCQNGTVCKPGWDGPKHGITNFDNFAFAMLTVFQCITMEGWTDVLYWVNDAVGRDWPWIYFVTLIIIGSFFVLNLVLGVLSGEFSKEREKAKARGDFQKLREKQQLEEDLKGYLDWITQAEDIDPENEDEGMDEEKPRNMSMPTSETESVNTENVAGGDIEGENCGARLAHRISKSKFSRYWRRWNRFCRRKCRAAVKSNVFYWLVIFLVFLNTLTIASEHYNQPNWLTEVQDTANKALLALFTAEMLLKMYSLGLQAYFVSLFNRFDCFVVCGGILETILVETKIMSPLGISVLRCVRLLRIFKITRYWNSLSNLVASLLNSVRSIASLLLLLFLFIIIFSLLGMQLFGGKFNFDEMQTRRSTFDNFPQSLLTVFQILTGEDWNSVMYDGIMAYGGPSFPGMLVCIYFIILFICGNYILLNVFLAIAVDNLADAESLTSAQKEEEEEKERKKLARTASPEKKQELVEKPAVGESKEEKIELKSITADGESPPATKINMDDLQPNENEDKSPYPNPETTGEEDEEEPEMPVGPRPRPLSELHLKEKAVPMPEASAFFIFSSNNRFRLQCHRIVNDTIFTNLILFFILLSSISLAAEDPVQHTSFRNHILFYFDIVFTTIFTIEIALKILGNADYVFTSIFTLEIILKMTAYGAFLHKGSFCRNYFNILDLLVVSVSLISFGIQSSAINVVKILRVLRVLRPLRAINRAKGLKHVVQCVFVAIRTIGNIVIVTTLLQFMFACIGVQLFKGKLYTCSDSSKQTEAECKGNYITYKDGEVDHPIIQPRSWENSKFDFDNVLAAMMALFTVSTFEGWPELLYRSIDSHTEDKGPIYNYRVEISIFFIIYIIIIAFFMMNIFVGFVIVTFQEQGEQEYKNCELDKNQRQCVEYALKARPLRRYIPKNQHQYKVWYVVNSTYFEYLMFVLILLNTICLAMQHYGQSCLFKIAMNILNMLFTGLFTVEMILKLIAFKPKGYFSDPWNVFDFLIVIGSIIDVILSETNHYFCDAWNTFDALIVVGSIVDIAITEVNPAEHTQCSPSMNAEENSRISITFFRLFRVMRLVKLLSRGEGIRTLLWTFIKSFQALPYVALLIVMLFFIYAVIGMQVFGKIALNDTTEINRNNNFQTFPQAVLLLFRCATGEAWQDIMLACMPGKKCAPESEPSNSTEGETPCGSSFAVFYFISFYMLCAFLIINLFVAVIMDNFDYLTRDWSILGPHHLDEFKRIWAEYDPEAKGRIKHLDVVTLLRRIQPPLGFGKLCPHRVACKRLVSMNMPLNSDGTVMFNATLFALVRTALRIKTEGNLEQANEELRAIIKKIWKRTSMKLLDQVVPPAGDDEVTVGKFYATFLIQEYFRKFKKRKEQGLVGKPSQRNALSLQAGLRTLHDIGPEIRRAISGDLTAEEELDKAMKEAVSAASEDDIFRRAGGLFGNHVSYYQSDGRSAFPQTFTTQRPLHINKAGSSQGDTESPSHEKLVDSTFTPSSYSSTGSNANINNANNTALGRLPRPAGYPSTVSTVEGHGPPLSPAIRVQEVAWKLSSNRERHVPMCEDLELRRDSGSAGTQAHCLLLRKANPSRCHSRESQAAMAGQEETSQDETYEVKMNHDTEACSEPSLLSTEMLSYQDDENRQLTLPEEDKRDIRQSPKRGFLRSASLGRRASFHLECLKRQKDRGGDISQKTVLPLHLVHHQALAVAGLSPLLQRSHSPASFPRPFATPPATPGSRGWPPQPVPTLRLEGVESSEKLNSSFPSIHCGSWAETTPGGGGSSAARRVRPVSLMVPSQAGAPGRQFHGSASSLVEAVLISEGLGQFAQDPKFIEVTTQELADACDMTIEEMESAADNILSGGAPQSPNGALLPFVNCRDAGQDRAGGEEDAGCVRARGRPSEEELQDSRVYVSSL
# Chain of ICaL (Q08289 whole entry partner): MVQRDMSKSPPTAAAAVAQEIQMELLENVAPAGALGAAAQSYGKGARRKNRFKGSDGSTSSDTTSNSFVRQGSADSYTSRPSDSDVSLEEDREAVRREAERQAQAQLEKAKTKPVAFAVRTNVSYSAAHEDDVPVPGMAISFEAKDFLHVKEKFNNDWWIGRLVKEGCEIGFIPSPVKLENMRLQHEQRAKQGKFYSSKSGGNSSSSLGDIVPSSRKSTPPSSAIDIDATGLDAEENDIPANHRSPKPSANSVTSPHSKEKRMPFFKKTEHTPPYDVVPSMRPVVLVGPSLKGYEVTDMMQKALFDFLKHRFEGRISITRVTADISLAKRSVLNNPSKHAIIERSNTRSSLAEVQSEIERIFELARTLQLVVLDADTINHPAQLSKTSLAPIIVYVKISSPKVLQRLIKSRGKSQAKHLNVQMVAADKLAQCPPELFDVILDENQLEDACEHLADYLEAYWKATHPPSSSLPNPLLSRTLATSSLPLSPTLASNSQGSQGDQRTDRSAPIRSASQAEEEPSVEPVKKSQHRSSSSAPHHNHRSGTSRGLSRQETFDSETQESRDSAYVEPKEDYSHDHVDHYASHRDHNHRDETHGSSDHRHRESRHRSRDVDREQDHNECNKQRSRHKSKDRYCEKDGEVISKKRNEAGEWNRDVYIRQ
# Chain of ICaL (P54289 25-946 partner limits assumed): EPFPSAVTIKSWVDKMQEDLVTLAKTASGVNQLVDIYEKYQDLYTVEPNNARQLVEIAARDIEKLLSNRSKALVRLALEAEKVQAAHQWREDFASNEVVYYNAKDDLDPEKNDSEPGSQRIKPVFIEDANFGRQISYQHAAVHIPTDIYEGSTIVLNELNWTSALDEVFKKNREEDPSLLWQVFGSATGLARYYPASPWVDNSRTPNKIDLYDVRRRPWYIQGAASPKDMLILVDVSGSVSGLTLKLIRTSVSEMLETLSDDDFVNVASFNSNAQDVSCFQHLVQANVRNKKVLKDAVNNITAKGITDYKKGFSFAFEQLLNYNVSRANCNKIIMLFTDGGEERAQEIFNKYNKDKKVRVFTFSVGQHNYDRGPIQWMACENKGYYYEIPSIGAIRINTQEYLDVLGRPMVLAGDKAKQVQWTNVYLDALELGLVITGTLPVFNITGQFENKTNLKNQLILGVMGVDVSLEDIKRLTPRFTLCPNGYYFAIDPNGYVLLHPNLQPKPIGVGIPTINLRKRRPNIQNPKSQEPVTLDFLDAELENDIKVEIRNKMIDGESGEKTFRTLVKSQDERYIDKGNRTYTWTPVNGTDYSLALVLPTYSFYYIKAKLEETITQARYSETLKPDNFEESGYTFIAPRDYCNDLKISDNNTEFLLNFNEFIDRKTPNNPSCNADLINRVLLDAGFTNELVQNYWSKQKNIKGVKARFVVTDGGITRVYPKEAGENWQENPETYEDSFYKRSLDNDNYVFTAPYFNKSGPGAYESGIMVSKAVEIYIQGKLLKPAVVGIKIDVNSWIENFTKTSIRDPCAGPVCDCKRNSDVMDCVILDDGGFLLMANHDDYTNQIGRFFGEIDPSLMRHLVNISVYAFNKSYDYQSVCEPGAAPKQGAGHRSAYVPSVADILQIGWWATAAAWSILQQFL
# Chain of ICaL (P54289 947-1103 partner limits assumed): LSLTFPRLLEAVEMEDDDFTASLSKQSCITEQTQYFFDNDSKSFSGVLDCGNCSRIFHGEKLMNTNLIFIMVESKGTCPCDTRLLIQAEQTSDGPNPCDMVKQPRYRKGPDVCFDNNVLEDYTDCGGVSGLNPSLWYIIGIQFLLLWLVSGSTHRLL
# Chain of IKr (Q12809 whole entry): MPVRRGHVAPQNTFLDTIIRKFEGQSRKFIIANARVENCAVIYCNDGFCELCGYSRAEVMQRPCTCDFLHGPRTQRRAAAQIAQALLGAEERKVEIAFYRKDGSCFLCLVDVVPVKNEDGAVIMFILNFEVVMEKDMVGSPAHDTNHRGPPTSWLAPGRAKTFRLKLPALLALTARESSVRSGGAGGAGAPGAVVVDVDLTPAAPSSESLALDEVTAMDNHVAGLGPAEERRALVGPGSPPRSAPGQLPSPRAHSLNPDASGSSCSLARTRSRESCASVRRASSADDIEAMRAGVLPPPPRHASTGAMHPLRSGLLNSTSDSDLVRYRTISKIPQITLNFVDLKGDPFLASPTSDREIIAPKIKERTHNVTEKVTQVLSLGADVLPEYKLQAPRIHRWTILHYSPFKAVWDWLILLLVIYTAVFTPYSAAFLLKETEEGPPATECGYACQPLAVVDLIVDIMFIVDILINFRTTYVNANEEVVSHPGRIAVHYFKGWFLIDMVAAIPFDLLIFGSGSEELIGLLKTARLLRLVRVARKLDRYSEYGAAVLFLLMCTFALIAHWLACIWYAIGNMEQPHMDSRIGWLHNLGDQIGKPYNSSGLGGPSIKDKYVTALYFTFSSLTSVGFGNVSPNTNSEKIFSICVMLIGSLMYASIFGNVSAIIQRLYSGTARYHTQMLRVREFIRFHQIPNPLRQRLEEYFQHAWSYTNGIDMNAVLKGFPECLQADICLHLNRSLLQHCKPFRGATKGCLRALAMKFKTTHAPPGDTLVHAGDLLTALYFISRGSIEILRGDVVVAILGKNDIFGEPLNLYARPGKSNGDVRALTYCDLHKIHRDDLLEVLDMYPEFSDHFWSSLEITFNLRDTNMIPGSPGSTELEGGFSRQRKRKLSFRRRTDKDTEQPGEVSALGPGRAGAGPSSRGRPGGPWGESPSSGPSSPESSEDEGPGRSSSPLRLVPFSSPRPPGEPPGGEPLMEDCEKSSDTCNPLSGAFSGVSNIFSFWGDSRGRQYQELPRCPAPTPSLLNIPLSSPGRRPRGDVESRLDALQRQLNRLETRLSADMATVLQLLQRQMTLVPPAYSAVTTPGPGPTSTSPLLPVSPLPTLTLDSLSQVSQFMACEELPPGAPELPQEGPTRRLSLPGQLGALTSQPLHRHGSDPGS
SMILES,Known effect on IKr (IKr),"Effect on the other currents, full inversion procedure (the other currents)",Known effect on ICaL (ICaL)
COc1cc(N)c(Cl)cc1C(=O)NC1CCN(CCCOc2ccc(F)cc2)CC1OC (stereo not drawn) [cisapride],blocks,nearly unaffected,
COc1ccc(CCN(C)CCCC(C#N)(c2ccc(OC)c(OC)c2)C(C)C)cc1OC (stereo not drawn) [verapamil],,,blocks
